# Experimental data reported in patent US9562060B2, “Heterocyclic pyridone compound, and intermediate, preparation method and use thereof” (SHANGHAI HUILUN LIFE SCIENCE & TECHNOLOGY CO., LTD, priority 2011, dated 2017).
# Read-outs that look alike come from different tables or passages of the source.
# Key:
# c-Met kinase = target: T1, c-Met kinase (Homo sapiens, UniProt P08581); assay: Inhibitory activity of compound to c-Met kinases (Z'-LYTE kinase assay kit); format: biochemical; conditions: Tyr 6 substrate peptide, read-out: Strength of activity (inhibition on c-Met kinase, IC50)
# T1 construct: purchased Invitrogen PV3143
# T1 sequence (P08581 25-1390): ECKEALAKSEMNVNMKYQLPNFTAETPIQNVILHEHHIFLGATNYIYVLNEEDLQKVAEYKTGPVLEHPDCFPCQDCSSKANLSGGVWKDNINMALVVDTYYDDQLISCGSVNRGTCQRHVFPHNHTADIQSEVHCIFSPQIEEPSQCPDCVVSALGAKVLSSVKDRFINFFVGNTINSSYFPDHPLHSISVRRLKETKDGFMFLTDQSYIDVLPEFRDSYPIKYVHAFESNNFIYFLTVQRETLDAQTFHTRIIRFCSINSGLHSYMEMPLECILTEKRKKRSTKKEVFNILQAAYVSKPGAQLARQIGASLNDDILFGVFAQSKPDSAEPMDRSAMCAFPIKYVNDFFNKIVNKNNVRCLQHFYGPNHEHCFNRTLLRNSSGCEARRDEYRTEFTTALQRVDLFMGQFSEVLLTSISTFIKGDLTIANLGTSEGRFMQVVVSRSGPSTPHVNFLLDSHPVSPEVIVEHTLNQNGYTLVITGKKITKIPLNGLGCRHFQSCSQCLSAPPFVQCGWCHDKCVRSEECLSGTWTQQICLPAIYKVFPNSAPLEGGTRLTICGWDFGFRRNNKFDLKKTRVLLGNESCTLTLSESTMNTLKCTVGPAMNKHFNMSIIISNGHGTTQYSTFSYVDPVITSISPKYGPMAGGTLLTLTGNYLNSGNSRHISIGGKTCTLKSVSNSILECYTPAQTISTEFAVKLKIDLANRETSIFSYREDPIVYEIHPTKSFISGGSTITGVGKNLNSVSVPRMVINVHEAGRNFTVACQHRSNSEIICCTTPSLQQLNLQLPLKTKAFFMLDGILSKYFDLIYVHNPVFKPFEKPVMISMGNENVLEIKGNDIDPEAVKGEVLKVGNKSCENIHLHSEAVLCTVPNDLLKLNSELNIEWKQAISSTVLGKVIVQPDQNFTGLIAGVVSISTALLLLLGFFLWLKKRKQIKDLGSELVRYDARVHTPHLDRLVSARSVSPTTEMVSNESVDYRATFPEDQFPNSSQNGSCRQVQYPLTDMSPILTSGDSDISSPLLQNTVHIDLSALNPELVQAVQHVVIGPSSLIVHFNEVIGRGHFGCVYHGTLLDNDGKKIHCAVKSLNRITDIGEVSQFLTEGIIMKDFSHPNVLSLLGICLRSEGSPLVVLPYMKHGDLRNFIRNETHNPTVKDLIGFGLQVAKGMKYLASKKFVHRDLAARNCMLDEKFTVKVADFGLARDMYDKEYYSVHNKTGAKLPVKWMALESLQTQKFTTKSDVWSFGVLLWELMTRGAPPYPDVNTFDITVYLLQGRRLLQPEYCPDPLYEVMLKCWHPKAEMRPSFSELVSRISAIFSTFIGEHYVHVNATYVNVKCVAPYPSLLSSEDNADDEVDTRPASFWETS
# Method: The inhibitory activity of the compound to c-Met kinases in vitro is determined through the following method.
# The method described below can be used to determine the inhibiting capacity of the compound of the present invention on the c-Met kinase activity, and the inhibiting capacity is represented by IC50. The half inhibitory concentration IC50 (a concentration of the compound for inhibiting the enzyme activity to 50%) of the compound is obtained by: mixing and reacting a certain amount of kinase with a specific substrate and different concentrations of test compound, and then labeling the substrate with an anti-phosphotyrosine antibody and a […], and finally quantitatively determining the c-Met kinase activity through a time-resolved fluorescence method.
# The specific experiment is implemented by using a Z′-LYTE kinase assay kit (Invitrogen, item PV4122). First, the test compound is diluted into 8 different concentrations from 100 μM at an interval of 1:5 with an ATP solution (Invitrogen, item PV3227); 5 μL 2×c-Met (Invitrogen, item PV3143) and 2×Z′-LYTE Tyr 6 substrate peptide are respectively taken up, and added to a 384-well microtiter plate, 5 μL diluted different concentrations of test compound are added in sequence, and the lid is closed. The microtiter plate is incubated for 60 min at room temperature (20° C. to 25° C.); and then 5 μL […] is added, and the lid is closed. The microtiter plate is incubated for 60 min at room temperature (20° C. to 25° C.); and then 5 μL termination reagent is added to the reaction well, to terminate the reaction. Finally, the fluorescence intensity (OD400) of each well is determined in a fluorescence analyzer (excitation wavelength: 400 nm). The inhibition rate is calculated, and the half inhibitory concentration (IC50) of the compound is calculated according to the inhibition rates of different concentrations.
# For a negative control group, except that test compound (replaced by 5 μL ATP solution) is not added, all the other reagents are added. In addition, an enzyme-free control group (that is, blank group) is set.
# [1] = test system: Human gastric cancer cell SNU-5; assay: Inhibition of in vitro proliferation of human gastric cancer cell SNU-5 (SRB); format: cell-based; conditions: SNU-5 cells, 72-hr agent treatment, read-out: Strength of activity (inhibition on SNU-5, IC50)
# Method: Human gastric cancer cells SNU-5 are cultured in an IMDM medium containing 20% fetal bovine serum, and the culture conditions are 37° C. and 5% CO2. Tumor cells are inoculated in a 96-well plate, and after 24-hr sidewall growth, 9 different concentrations of (1 to 30000 nM) an agent are added, after 72-hr agent treatment, the medium is discarded, the cells are fixed by cold trichloroacetic acid, and then dyed with a sulforhodamine B (SRB) solution. Unbound SRB is washed off, and SRB bound with protein was dissolved with Tris, the OD is determined at a wavelength of 510 nm by a microplate reader, and the cell growth inhibition rate is calculated according to the following equation: Inhibition rate=(OD of control well-OD of administered well)/OD of control well×100%
# According to the inhibition rates of different concentrations, the half inhibitory concentration IC50 is calculated by using a Logit method.
# [2] = test system: human malignant glioma U87-MG xenografts; assay: Efficacy on human malignant glioma U87-MG xenografts in nude mice; format: in vivo, BALB/cA-nude nude mice; conditions: 100 mg/kg orally once per day for 16 days
# Method: The human malignant glioma U87-MG is purchased from ATCC (American Type Culture Collection), America.
# BALB/cA-nude nude mice (♀, 6-7 weeks old) are purchased from Shanghai SLAC Laboratory Animal Co. Ltd. Breeding environment: SPF grade.
# In vitro-cultured malignant glioma U87-MG cells are inoculated subcutaneously in nude mice, and after the tumor grows to a size of 100 to 250 mm^3, the animals are randomly divided into groups (d0). The dose of the test agent is 100 mg/kg, and the agent is orally administered once per day for continuous 16 days. The volume of the tumor is measured two to three times per week, the mice are weighed, and the data is recorded. The tumor volume (V) is calculated according to the equation: V=1/2×a×b^2, where a and b respectively represent length and width.
# The antineoplastic efficacy is evaluated according to tumor inhibition rate, and the tumor inhibition rate is calculated according to the equation below: Tumor inhibition rate=1−(T−T0)/(C−C0), • where T and C are respectively tumor volumes of the test agent group mice and the blank group mice at the end of the experiment; and T0 and C0 are tumor volumes at the start of the experiment.
compound,measurement,setting,value
O=C(Nc1ccc(Oc2ccnc3[nH]ccc23)c(F)c1)c1cc2ncsc2n(-c2ccc(F)cc2)c1=O [Embodiment 4],IC50,c-Met kinase,< 0.01 µM
same,IC50,[1],0.1 to 0.5 µM
same,Tumor Inhibition Rate (%),[2],26%
Nc1nccc(Oc2ccc(NC(=O)c3cc4ncsc4n(-c4ccc(F)cc4)c3=O)cc2F)c1Cl [Embodiment 2],IC50,c-Met kinase,< 0.01 µM
same,IC50,[1]; Homo sapiens,0.1 to 0.5 µM
same,Tumor Inhibition Rate (%),[2],16%
COc1cc2c(Oc3ccc(NC(=O)c4cc5ncsc5n(-c5ccc(F)cc5)c4=O)cc3F)ccnc2cc1OCCCN1CCOCC1 [Embodiment 5],IC50,c-Met kinase,< 0.01 µM
same,IC50,[1],< 0.1 µM
same,Tumor Inhibition Rate (%),[2],74%
Nc1cc(Oc2ccc(NC(=O)c3cc4ncsc4n(-c4ccc(F)cc4)c3=O)cc2F)ccn1 [Embodiment 1],IC50,c-Met kinase,0.01 to 0.1 µM
same,IC50,[1]; Homo sapiens,< 0.1 µM
same,Tumor Inhibition Rate (%),[2],62%
COc1ccc2c(Oc3ccc(NC(=O)c4cc5ncsc5n(-c5ccc(F)cc5)c4=O)cc3F)ccnc2c1 [Embodiment 3],IC50,c-Met kinase,0.01 to 0.1 µM
same,IC50,[1]; Homo sapiens,0.1 to 0.5 µM
same,Tumor Inhibition Rate (%),[2],91%
